# Source: patent US12528819B2 (priority 2016, dated 2026)
# Biological target: T1, α5β2γ2 subtype GABAAR (Homo sapiens, UniProt P18507+P31644)
# T1 construct: expressed in transfected cells
# T1 sequence (P31644 32-462): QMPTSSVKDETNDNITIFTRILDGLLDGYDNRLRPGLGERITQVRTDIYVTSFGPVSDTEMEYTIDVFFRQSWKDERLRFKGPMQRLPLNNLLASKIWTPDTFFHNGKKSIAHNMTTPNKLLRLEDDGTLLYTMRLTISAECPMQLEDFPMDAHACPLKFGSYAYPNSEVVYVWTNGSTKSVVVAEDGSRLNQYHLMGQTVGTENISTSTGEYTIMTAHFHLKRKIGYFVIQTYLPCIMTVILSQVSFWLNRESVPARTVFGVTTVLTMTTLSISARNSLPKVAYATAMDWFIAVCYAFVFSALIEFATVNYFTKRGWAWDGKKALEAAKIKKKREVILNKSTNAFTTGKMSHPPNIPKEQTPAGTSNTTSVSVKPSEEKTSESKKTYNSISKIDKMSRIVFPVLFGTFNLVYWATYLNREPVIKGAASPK
# T1 sequence (P47870 25-512 partner limits assumed): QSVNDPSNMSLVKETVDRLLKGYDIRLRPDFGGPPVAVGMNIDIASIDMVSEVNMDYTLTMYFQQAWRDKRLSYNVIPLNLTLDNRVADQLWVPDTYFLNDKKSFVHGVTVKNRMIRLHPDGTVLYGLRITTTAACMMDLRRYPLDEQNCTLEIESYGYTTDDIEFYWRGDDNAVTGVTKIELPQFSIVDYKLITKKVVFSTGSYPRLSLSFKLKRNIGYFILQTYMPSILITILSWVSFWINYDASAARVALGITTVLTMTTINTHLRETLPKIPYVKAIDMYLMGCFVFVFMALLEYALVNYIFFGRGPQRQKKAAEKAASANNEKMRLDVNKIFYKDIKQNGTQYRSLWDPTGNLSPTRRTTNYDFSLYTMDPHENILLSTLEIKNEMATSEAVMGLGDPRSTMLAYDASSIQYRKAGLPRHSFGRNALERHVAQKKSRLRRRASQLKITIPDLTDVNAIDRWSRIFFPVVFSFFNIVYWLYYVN
# T1 sequence (P18507 40-467 limits assumed): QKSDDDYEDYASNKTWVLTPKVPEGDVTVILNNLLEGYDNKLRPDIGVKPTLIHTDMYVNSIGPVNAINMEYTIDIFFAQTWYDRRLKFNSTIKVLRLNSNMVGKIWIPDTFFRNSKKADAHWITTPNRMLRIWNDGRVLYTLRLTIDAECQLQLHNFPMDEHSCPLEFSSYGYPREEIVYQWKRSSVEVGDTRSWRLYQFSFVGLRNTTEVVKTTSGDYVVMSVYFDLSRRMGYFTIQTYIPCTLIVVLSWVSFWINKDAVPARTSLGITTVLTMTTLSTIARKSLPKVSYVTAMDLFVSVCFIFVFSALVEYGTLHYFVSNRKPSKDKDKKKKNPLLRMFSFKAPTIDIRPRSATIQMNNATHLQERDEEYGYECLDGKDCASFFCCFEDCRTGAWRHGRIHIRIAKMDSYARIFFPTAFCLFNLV
# Assay: Positive allosteric modulator activity: potentiation of EC20 GABA current in oocytes
# Format: cell-based
# Details: read-out: GABA α5 Functional Data (potentiation), @ 100 nM, reported as ranges
# Description: (B) Positive Allosteric Modulator Activity of Test Compounds on α5β2γ2 Subtype GABAAR
# On day 1, 1 ng/32 nL of GABAA α5β2γ2 cDNA was injected into one oocyte. Test starts on day 2. The cDNA injected to the oocytes was a mix of alpha, beta and gamma, their ratio is 1:1:10 (by weight) and the total weight of the mixed 3 subunits to be injected in one oocyte was 1 ng in 32 nl volume. The injected oocytes can also be tested on day 3. In such case, the cDNA amount injected to the oocytes should be reduced by 20%.
# Compounds of the present invention were tested using the following procedures.
# • 1). 8 oocytes were placed in 8 chambers of OpusXpress and superfused with Modified Barth's Saline (MBS) at 3 mL/min. Glass electrodes back-filled with 3M KCl (0.5-3 megaohms) were used.
# Control test (Diazepam or methyl 3,5-diphenylpyridazine-4-carboxylate) • 1). New oocytes was used to run new test. • 2). […] Oocytes were washed with MBS for 5-10 min. • 4). […] Itest was divided by IGABA to obtain potentiation (%). Test Compounds at Multiple Doses • 1). Repeat the above steps 1), 2) and 3) in the control test. • 2). […] Divide Itest by IGABA to obtain potentiation (%). • 3). Discard all tested oocytes, new oocytes were used and the above steps 1) and 2) were repeated to test second concentration of the same compound. Each oocyte was used for only one concentration test for a single test compound. The steps were repeated for other test compounds.
row,Compound,activation at 0.1 µM [%]
1,C#Cc1ncn2c1Cc1cnnn1-c1cc(Cl)ccc1-2 [Compound 356],> 50
2,CC(C)c1nc(-c2ncn3c2Cn2c(COc4cccc(F)c4)nnc2-c2cc(F)ccc2-3)no1 [Compound 188],20 to 50
3,CCOC(=O)c1ncn2c1Cc1c(CN(C)Cc3ccccc3)nnn1-c1cc(OC)ccc1-2 [Compound 51],5 to 20
4,Clc1ccc2c(c1)-n1nncc1Cc1c(C#Cc3ccccc3)ncn1-2 [Compound 395],5 to 20
5,COCc1nnc2n1Cc1c(-c3nc(C)no3)ncn1-c1ccc(OC)cc1-2 [Compound 128],20 to 50
6,COCc1nnc2n1Cc1c(C3=N[C@@H](c4ccccc4)CO3)ncn1-c1ccc(OC)cc1-2 [Compound 343],20 to 50
7,C#Cc1ncn2c1Cn1c(COCc3ccccc3)nnc1-c1cc(Cl)ccc1-2 [Compound 351],20 to 50
8,CC(C)C#Cc1ncn2c1Cc1cnnn1-c1cc(Cl)ccc1-2 [Compound 415],20 to 50
9,COc1ccc2c(c1)-n1nnc(Cc3ccccc3)c1Cc1c(Br)ncn1-2 [Compound 212],20 to 50
10,COc1ccc2c(c1)-n1nnc(COc3cccc(Br)c3)c1Cc1c(C#N)ncn1-2 [Compound 225],20 to 50
11,CCc1nc(-c2ncn3c2Cc2c(C)nnn2-c2cc(F)ccc2-3)no1 [Compound 155],20 to 50
12,COCc1nnc2n1Cc1c(C3=N[C@@H](c4ccccc4OC)CO3)ncn1-c1ccc(Cl)cc1-2 [Compound 331],5 to 20
13,COCc1nnc2n1Cc1c(C#Cc3ccccc3C)ncn1-c1ccc(Cl)cc1-2 [Compound 293],20 to 50
14,FC(F)=Cc1ncn2c1Cn1c(COc3ccccc3)nnc1-c1cc(Cl)ccc1-2 [Compound 199],20 to 50
15,CCOC(=O)c1ncn2c1Cc1c(CN(CC)CC)nnn1-c1cc(OC)ccc1-2 [Compound 50],5 to 20
16,CCOC(=O)c1ncn2c1Cc1c(COc3cccc(OC)c3)nnn1-c1cc(OC)ccc1-2 [Compound 11],20 to 50
17,CCc1nc(-c2ncn3c2Cc2c(Cc4ccc(F)cc4)nnn2-c2cc(OC)ccc2-3)no1 [Compound 195],20 to 50
18,COCc1nnc2n1Cc1c(C#CCc3cccc(OC(F)(F)F)c3)ncn1-c1ccc(Cl)cc1-2 [Compound 423],5 to 20
19,COc1ccc(C#Cc2ncn3c2Cc2cnnn2-c2cc(Cl)ccc2-3)cc1 [Compound 397],20 to 50
20,CCOC(=O)c1ncn2c1Cc1c(CN3CCCC3)nnn1-c1cc(OC)ccc1-2 [Compound 48],20 to 50
21,COc1ccc2c(c1)-c1nnc(COCc3ccccc3F)n1Cc1c(-c3noc(C(C)C)n3)ncn1-2 [Compound 184],20 to 50
22,COc1ccc2c(c1)-n1nncc1Cc1c(C#CCc3cccc(OC(F)(F)F)c3)ncn1-2 [Compound 418],20 to 50
23,COc1ccc2c(c1)-c1nnc(COc3ccccc3)n1Cc1c(-c3noc(C)n3)ncn1-2 [Compound 162],20 to 50
24,Clc1ccc2c(c1)-n1nncc1Cc1c(C#Cc3ccccn3)ncn1-2 [Compound 401],5 to 20
25,Cc1nnn2c1Cc1c(C(=O)OCC(C)(C)C)ncn1-c1ccc(F)cc1-2 [Compound 113],> 50
26,COCc1nnc2n1Cc1c(-c3nc(-c4ccccc4)co3)ncn1-c1ccc(Cl)cc1-2 [Compound 245],5 to 20
27,COc1ccc2c(c1)-n1nnc(COc3ccccc3F)c1Cc1c(-c3noc(C)n3)ncn1-2 [Compound 181],20 to 50
28,Cc1nc(-c2ncn3c2Cc2c(C)nnn2-c2ccccc2-3)no1 [Compound 127],20 to 50

row,Compound,activation at 0.1 µM [%]
1,CCOC(=O)c1ncn2c1Cc1c(Cc3cccnc3)nnn1-c1cc(C)ccc1-2 [Compound 111],20 to 50
2,COCc1nnc2n1Cc1c(C#CCc3cccc(F)c3)ncn1-c1ccc(Cl)cc1-2 [Compound 421],20 to 50
3,COc1ccc2c(c1)-n1nnc(COc3ccccc3F)c1Cc1c(C#N)ncn1-2 [Compound 223],5 to 20
4,Cc1nnn2c1Cc1c(C(=O)OC(C)C)ncn1-c1ccccc1-2 [Compound 153],20 to 50
5,CC(C)c1coc(-c2ncn3c2Cc2cnnn2-c2cc(Cl)ccc2-3)n1 [Compound 387],20 to 50
6,Cc1noc(-c2ncn3c2Cc2c(C)nnn2-c2ccccc2-3)n1 [Compound 126],20 to 50
7,COc1ccc2c(c1)-n1nnc(Cc3ccccc3)c1Cc1c(C#N)ncn1-2 [Compound 207],20 to 50
8,COc1ccc2c(c1)-c1nnc(COc3ccc(F)cc3)n1Cc1c(-c3noc(C(C)C)n3)ncn1-2 [Compound 172],> 50
9,COCc1nnc2n1Cc1c(C3=N[C@@H](c4ccc(Cl)cc4)CO3)ncn1-c1ccc(Cl)cc1-2 [Compound 334],20 to 50
10,Cc1nc(-c2ncn3c2Cn2c(COc4ccccc4)nnc2-c2cc(F)ccc2-3)no1 [Compound 148],20 to 50
11,Cc1cccc(C)c1OCc1nnc2n1Cc1c(-c3noc(C(C)C)n3)ncn1-c1ccc(F)cc1-2 [Compound 190],5 to 20
12,Clc1ccc2c(c1)-c1nnc(COc3ccccc3)n1Cc1c(Br)ncn1-2 [Compound 202],20 to 50
13,CC(C)C#Cc1ccc2c(c1)-n1nncc1Cc1c(Br)ncn1-2 [Compound 454],5 to 20
14,Fc1ccc2c(c1)-n1cnc(Br)c1Cc1c(Cc3ccccc3)nnn1-2 [Compound 229],5 to 20
15,CCOCc1nnc2n1Cc1c(-c3noc(C(C)C)n3)ncn1-c1ccc(OC)cc1-2 [Compound 173],> 50
16,COc1ccc2c(c1)-c1nnc(COC3CCCC3)n1Cc1c(-c3noc(C(C)C)n3)ncn1-2 [Compound 178],> 50
17,COCc1nnc2n1Cc1c(C3=NCCO3)ncn1-c1ccc(Cl)cc1-2 [Compound 238],20 to 50
18,COc1ccc2c(c1)-n1nncc1Cc1c(C#CCc3ccccc3OC(F)(F)F)ncn1-2 [Compound 420],5 to 20
19,COCc1nnc2n1Cc1c(C3=N[C@@H](c4ccccc4F)CO3)ncn1-c1ccc(Cl)cc1-2 [Compound 319],20 to 50
20,COc1ccc(C#Cc2ncn3c2Cc2cnnn2-c2cc(OC)ccc2-3)cc1 [Compound 414],20 to 50
21,COCc1nnc2n1Cc1c(-c3noc(C(C)C)n3)ncn1-c1ccc(F)cc1-2 [Compound 186],> 50
22,COc1ccc2c(c1)-n1nncc1Cc1c(C#Cc3ccccn3)ncn1-2 [Compound 408],5 to 20
23,N#Cc1ncn2c1Cc1c(COc3cccc(F)c3)nnn1-c1cc(Cl)ccc1-2 [Compound 227],5 to 20
24,CCOC(=O)c1ncn2c1Cn1c(COc3ccccc3)nnc1-c1cc(F)ccc1-2 [Compound 137],20 to 50
25,COCc1nnc2n1Cc1c(-c3cc(C)no3)ncn1-c1ccc(Cl)cc1-2 [Compound 233],5 to 20
26,Cc1nnn2c1Cc1c(-c3noc(C(C)(C)C)n3)ncn1-c1ccc(F)cc1-2 [Compound 160],> 50
27,C#Cc1ncn2c1Cn1c(COc3ccccc3)nnc1-c1cc(OC)ccc1-2 [Compound 236],5 to 20
